# Data published in publication PMC5941067, “Novel Xanthomonas campestris Long-Chain-Specific 3-Oxoacyl-Acyl Carrier Protein Reductase Involved in Diffusible Signal Factor Synthesis” (mBio, 2018).
# Legend:
# FabG1 (XCC1018) = target: T1, FabG1 (XCC1018) (Xanthomonas campestris, UniProt Q8PBU9); assay: NADPH absorbance decrease at […] nm; format: biochemical; conditions: hydride donor; 3-oxodecanoyl-ACP generated in situ by E. coli FabD and FabB from acyl-ACP and malonyl-CoA
# T1 construct: gene fabG; full length, pET-28(b) construct (His tag), E. coli BL21(DE3)
# T1 sequence (Q8PBU9 entry or part of it): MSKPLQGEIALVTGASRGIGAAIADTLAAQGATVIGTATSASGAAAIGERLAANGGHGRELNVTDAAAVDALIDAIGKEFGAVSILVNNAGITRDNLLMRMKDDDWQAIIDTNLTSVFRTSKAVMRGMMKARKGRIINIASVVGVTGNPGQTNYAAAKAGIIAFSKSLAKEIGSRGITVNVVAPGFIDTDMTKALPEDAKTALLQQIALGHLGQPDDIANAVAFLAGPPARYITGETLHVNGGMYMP
# [1] = target: T2, X. campestris pv. campestris FabH (Xanthomonas campestris, UniProt Q8PBV1); assay: coupled reaction, MALDI-TOF MS of acyl-ACP products; format: biochemical; conditions: co-substrate malonyl-ACP; with FabG1 or FabG2 and E. coli FabA
# T2 construct: purification and tag of this protein not described in the main text
# T2 sequence (Q8PBV1 whole entry): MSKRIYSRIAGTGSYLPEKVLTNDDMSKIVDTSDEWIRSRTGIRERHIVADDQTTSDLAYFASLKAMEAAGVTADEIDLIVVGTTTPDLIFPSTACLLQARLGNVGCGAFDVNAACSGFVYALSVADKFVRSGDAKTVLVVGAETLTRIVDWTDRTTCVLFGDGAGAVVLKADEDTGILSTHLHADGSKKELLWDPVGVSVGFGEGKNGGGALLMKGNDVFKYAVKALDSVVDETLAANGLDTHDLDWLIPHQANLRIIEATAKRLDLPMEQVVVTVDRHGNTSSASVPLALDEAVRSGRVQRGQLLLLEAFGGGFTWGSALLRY
Structure (SMILES),NADPH absorbance decrease at 340 nm (FabG1 (XCC1018)),"coupled reaction, MALDI-TOF MS of acyl-ACP products [1]"
NC(=O)C1=CN([C@@H]2O[C@H](COP(=O)(O)OP(=O)(O)OC[C@H]3O[C@@H](n4cnc5c(N)ncnc54)[C@H](OP(=O)(O)O)[C@@H]3O)[C@@H](O)[C@H]2O)C=CC1 [NADPH],The maximal rate of NADPH reduction of 3-oxodecanoyl-ACP by FabG2,–
CCCCCCCC(=O)SCCNC(=O)CCNC(=O)[C@H](O)C(C)(C)COP(=O)(O)OP(=O)(O)OC[C@H]1O[C@@H](n2cnc3c(N)ncnc32)[C@H](O)[C@@H]1OP(=O)(O)O [octanoyl-CoA],–,"X. campestris pv. campestris FabH, octanoyl-CoA, and malonyl-ACP replaced octanoyl-ACP"
